In ChEMBL document CHEMBL5247574, “Recent Progress on Bile Acid Receptor Modulators for Treatment of Metabolic Diseases” (J Med Chem, 2016):
One block for each compound: values may come before it.

Experiments:
[1] = Toxicity in DIO mouse assessed as reduction in total cholesterol level at 30 mg/kg per day administered for 4 weeks; type: organism-based; set-up: scale not given: the % may be the effect or the level left; details: in vivo, 672 h
Bile acid receptor [2] = target: T1, Bile acid receptor (Homo sapiens, UniProt Q96RI1); assay: Agonist activity at GAL4-fused N-terminal GST tagged human FXR LBD expressed in human HEK293 cells by one hybrid reporter assay; type: cell-based
T1 sequence (Q96RI1 whole entry): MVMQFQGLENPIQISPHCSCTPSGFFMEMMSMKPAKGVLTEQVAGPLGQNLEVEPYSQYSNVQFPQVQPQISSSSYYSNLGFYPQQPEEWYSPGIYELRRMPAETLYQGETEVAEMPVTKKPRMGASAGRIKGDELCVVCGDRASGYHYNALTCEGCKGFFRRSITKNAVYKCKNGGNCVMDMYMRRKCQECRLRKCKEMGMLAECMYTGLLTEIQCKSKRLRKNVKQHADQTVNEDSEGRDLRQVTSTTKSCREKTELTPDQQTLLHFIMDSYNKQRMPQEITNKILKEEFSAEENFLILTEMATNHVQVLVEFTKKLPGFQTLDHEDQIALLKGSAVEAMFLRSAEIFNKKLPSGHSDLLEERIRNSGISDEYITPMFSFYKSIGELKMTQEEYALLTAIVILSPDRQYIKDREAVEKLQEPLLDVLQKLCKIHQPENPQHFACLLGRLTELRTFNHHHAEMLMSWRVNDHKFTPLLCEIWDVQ

[3] = Toxicity in DIO mouse assessed as plasma triglycerides at 30 mg/kg per day administered for 4 weeks; type: organism-based; details: in vivo, 672 h
[4] = target: T2, G-protein coupled bile acid receptor 1 (Homo sapiens, UniProt Q8TDU6); assay: Agonist activity at TGR5 in human T-lymphocyte cells assessed as increase in cAMP production; type: cell-based
T2 sequence (Q8TDU6 whole entry): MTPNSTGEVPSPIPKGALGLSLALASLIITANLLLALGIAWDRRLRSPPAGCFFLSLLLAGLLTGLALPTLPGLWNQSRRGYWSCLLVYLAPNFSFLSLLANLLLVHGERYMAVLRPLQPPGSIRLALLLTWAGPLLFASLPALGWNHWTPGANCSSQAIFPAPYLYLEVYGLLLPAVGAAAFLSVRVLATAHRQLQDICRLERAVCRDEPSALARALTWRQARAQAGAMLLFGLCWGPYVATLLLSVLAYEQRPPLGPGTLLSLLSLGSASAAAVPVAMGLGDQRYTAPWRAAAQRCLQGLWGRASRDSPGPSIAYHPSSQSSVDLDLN

[5] = In vivo agonist activity at TGR5 in streptozotocin-induced diabetic hamster model assessed as increase in oxygen consumption at 20 mg/kg, po bid administered for 2 weeks by oral glucose tolerance test relative to control; type: functional, Cricetulus griseus
[6] = In vivo agonist activity at TGR5 in streptozotocin-induced diabetic hamster model assessed as reduction in glucose excursion at 38 mg/kg, po by oral glucose tolerance test relative to control; type: functional, Cricetulus griseus; set-up: scale not given: the % may be the effect or the level left
[7] = In vivo agonist activity at TGR5 in streptozotocin-induced diabetic hamster model assessed as increase in HDL level at 20 mg/kg, po bid administered for 2 weeks by oral glucose tolerance test relative to control; type: functional, Cricetulus griseus
[8] = In vivo agonist activity at TGR5 in streptozotocin-induced diabetic hamster model assessed as decrease in plasma triglyceride at 20 mg/kg, po bid administered for 2 weeks by oral glucose tolerance test relative to control; type: functional, Cricetulus griseus; set-up: scale not given: the % may be the effect or the level left
[9] = In vivo agonist activity at TGR5 in streptozotocin-induced diabetic hamster model assessed as increase in insulin secretion at 20 mg/kg, po bid administered for 2 weeks by oral glucose tolerance test relative to control; type: functional, Cricetulus griseus
[10] = In vivo agonist activity at TGR5 in streptozotocin-induced diabetic hamster model assessed as reduction in body weight at 20 mg/kg, po bid administered for 2 weeks by oral glucose tolerance test relative to control; type: functional, Cricetulus griseus; set-up: scale not given: the % may be the effect or the level left
[11] = target: T3, G-protein coupled bile acid receptor 1 (Homo sapiens) (UniProt Q8TDU6); assay: Agonist activity at human TGR5 transfected in human NCI-H716 cells assessed as fold increase in GLP-1 secretion; type: cell-based; details: filed as agonist
T3 sequence (whole entry): T2 sequence (Q8TDU6 whole entry)

[12] = In vivo agonist activity at TGR5 in streptozotocin-induced diabetic hamster model assessed as decrease in LDL level at 20 mg/kg, po bid administered for 2 weeks by oral glucose tolerance test relative to control; set-up: scale not given: the % may be the effect or the level left; details: Cricetulus griseus
[13] = In vivo agonist activity at TGR5 in streptozotocin-induced diabetic hamster model assessed as decrease in non-HDL level at 20 mg/kg, po bid administered for 2 weeks by oral glucose tolerance test relative to control; set-up: scale not given: the % may be the effect or the level left; details: Cricetulus griseus
[14] = In vivo agonist activity at TGR5 in streptozotocin-induced diabetic hamster model assessed as increase in HDL/LDL ratio at 20 mg/kg, po bid administered for 2 weeks by oral glucose tolerance test relative to control
[15] = target: T2, G-protein coupled bile acid receptor 1; assay: Agonist activity at TGR5 in human HEK293 cells incubated for 30 mins; type: cell-based
Bile acid receptor [16] = target: T1, Bile acid receptor; assay: Antagonist activity at FXR (unknown origin) by HTFR assay
Bile acid receptor [17] = target: T1, Bile acid receptor; assay: Antagonist activity at FXR in human HepG2 cells; type: cell-based
Bile acid receptor [18] = target: T1, Bile acid receptor; assay: Agonist activity at FXR (unknown origin) by FRET assay
[19] = Permeability of compound by PAMPA assay; type: ADME
Bile acid receptor [20] = target: T1, Bile acid receptor; assay: Agonist activity at human FXR expressed in Escherichia coli BL21 (DE3) assessed as effect on europium labeled SRC-1 peptide recruitment by HTRF assay

EC50 (Bile acid receptor [2]): 10 nM
SMILES: O=C(O)c1ccc(C2CC2c2ccc(OCc3c(-c4c(Cl)cccc4Cl)noc3C3CC3)cc2Cl)cc1 (stereo unspecified)
Activity [1]: 70%
Activity [3]: 50%

EC50 [4]: 7 nM
SMILES: CS(=O)(=O)c1ccc(CC2CCC(c3c(C(=O)N4CCC(c5ccc(F)cc5)C4)cnn3-c3ccc(F)cc3)CC2)cc1 (stereo unspecified)

fold change (FC) [11]: 3.7
SMILES: CN(C(=O)c1c(-c2ccc(F)cc2)nc2ncccn12)c1ccc(Cl)cc1
Activity [5]: 7.9%
Activity [6]: 39%
Activity [7]: 7%
Activity [8]: 43%
Activity [9]: 80%
Activity [10]: 5.2%
Activity [12]: 14%
Activity [13]: 24%
Activity [14]: 24%

EC50 [15]: < 100 nM
SMILES: COc1ccc(Cc2nnc(SCc3c(F)cccc3Cl)n2-c2ccc(F)cc2F)cc1OC

IC50 (Bile acid receptor [16]): 10000 nM
IC50 (Bile acid receptor [17]): 12200 nM
SMILES: O=C(O)c1ccccc1-c1ccc(Cn2ccc(OCc3c(-c4ccccc4Cl)noc3-c3cccs3)n2)cc1

EC50 (Bile acid receptor [18]): < 25 nM
EC50 (Bile acid receptor [2]): 10 nM
permeability [19]: 46.1%
SMILES: CC(C)n1nc(C(=O)O)cc1[C@H]1C[C@](O)(c2ccc(OCc3c(-c4c(Cl)cccc4Cl)noc3C3CC3)cc2Cl)C1

EC50 (Bile acid receptor [20]): < 100 nM
SMILES: CC(C)c1onc(-c2c(Cl)cccc2Cl)c1COc1ccc2c(ccn2Cc2ccc(-c3nnn[nH]3)cc2)c1
